Tests used:
[1] = system: BSO-Induced Cataract Formation; assay: BSO-induced cataract formation in rats (slit-lamp, lenses opaque or clear); conditions: read at 14-15 days; for animals developed cataract: new born rats
Experimental: Effects of CLX-SYN-G165-001 on BSO-Induced Cataract Formation in Rats Sprague-Dawley rats (female, timed pregnant) were housed in the Research Animal Facilities and given food and water ad libitum. They were breast fed.
Animals were divided into 3 groups and given 4 injections per day for 2 days, according to the following protocol: Each experimental group consisted of 20-25 animals. BSO, L-Buthionine-(S,R)-sulfoximine was dissolved in 0.1 M NaCl and injected at a concentration of 3 mmol/g body weight (total volume not exceeding 60 ml). CLX-SYN-G165-001 was dissolved in ethanol: NaCl (50:50, v/v). BSO was injected subcutaneously into new born animals (age 28-36 hours). CLX-SYN-G165-001 (15 mg/kg b.w.) was given intraperitoneally. An equivalent volume of ethanol: NaCl and/or NaCl was given to the controls. Rats were sacrificed when they opened their eyes (14-15 days). Cataract formation was visualized with a slit-lamp microscope and the lenses were classified as opaque or clear.

Lens GSH = Lens GSH and GSSG level (enzymatic recycling method) in BSO-treated rats
Experimental: Animals were divided into 3 groups and given 4 injections per day for 2 days, according to the following protocol: Each experimental group consisted of 20-25 animals. BSO, L-Buthionine-(S,R)-sulfoximine was dissolved in 0.1 M NaCl and injected at a concentration of 3 mmol/g body weight (total volume not exceeding 60 ml). CLX-SYN-G165-001 was dissolved in ethanol: NaCl (50:50, v/v). BSO was injected subcutaneously into new born animals (age 28-36 hours). CLX-SYN-G165-001 (15 mg/kg b.w.) was given intraperitoneally. An equivalent volume of ethanol: NaCl and/or NaCl was given to the controls. Rats were sacrificed when they opened their eyes (14-15 days). […] Isolation of lenses: After decapitation of the animals the eyes were carefully dissected out from the ciliary body and the lens capsule was released from the enucleated eye globes. Each lens was weighed and placed in a microfuge tube and frozen immediately in liquid nitrogen for future analyses. Glutathione: Frozen lenses were homogenized in 5% sulfosalicylic acid, 5 mM EDTA, ice cold and bubbled with argon. After centrifugation GSH and GSSG were determined by the enzymatic recycling method.

SMILES: CCCCS(=N)(=O)CCC(N)C(=O)O [BSO, L-Buthionine-(S,R)-sulfoximine, reference compound]
- animals developed cataracts ([1]; BSO alone, subcutaneously, new born rats (age 28-36 hours)): 100%
- GSH in the lenses, % lower than that of the control lenses (Lens GSH; BSO-treated rats): about 55%

SMILES: CC(C)=CCC[C@@H](C)[C@H]1CC[C@@]2(C)C3=C(CC[C@]12C)[C@@]1(C)CC[C@H](OC(=O)CCCC[C@@H]2CCSS2)C(C)(C)[C@@H]1CC3 [CLX-SYN-G165-001]
- animals developed cataract ([1]; BSO plus CLX-SYN-G165-001 (15 mg/kg b.w. intraperitoneally), 4 injections per day for 2 days, p<0.005 vs BSO only): 13%
- animals developed cataract ([1]; CLX-SYN-G165-001 without BSO (15 mg/kg b.w. intraperitoneally)): 0%
- lens GSH level, % that of control level (Lens GSH; treatment with BSO and CLX-SYN-G165-001, p<0.001 vs BSO only): 84-87%
